# Patent US8093060B2, “Multisite phosphorylated peptide (protein) recognizing compound and detection method, imaging method, alzheimer's disease diagnosing method and reagent kit using the same” (Canon Kabushiki Kaisha, priority 2008, dated 2012)
# Entries after “also recorded” stand apart in the source; their conditions may differ.
# Legend:
# [1] = tested on: tau proteins on a tissue section; test: Fluorescence staining of AD human hippocampal tissue sections treated with dephosphorylating enzyme (PP2A); settings: PP2A 0.5 units/50 μL, 37° C., 24 h
# Experimental: To investigate whether an excessively phosphorylated tau protein in brain tissues can be detected, a fluorescence staining experiment of hippocampal tissue sections from a human brain affected by Alzheimer (AD) and a normal brain was performed using BODIPY-Zn(Dpa). […]
# Before staining, the sections were treated with a dephosphorylating enzyme (PP2A: 0.5 units/50 μL, 37° C., 24 h), and a fluorescence staining experiment for hippocampal tissue sections was performed according to the procedure in Example 2(12). […] Fluorescence dots observed in the BODIPY-Zn(Dpa) staining and the AT8 staining disappeared after dephosphorylating tau proteins on tissues with PP2A. […] The fluorescence dots in the BODIPY-Zn(Dpa) staining were detected depending on the phosphorylation of tau proteins.
# [2] = biological target: T1, Tau204-2163P (Homo sapiens, UniProt P10636); test: Fluorescence titration of BODIPY-Zn(Dpa) with Tau204-2163P; type: binding
# T1 construct: made in house; host or cells: chemical solid-phase synthesis
# Experimental: (§1) The phosphorylated peptide-recognizing ability of BODIPY-Zn(Dpa) compound 9 (hereinafter referred to as BODIPY-Zn(Dpa)) was evaluated by measuring fluorescence spectra. Measurement was performed under the following conditions: [BODIPY-Zn(Dpa)]=5 μM; pH 7.2; 50 mM HEPES buffer; and 25° C. The excitation wavelength was λex=530 nm. […] When Tau2P was excessively added, this change reached saturation. The […] calculated from the fluorescence changes was 2.75×10^5 M^−1.
# (§2) Fluorescence changes when peptide Tau204-2163P or Tau204-2162P used in Example 1 was added dropwise were measured to calculate the affinity (association constant).
# [3] = biological target: T2, Tau204-2162P (Homo sapiens, UniProt P10636); test: Fluorescence titration of BODIPY-Zn(Dpa) with Tau204-2162P (i, i+6); type: binding
# T2 construct: made in house; host or cells: chemical solid-phase synthesis
# Experimental: as §1, §2
# [4] = biological target: T3, phosphorylated tau aggregate (p-Tau) (Homo sapiens, UniProt P10636); test: Fluorescence staining of phosphorylated tau aggregate prepared in vitro; type: binding
# T3 construct: made in house; host or cells: Escherichia coli
# Experimental: Tau proteins (8 μM) expressed by Escherichia coli and heparin (1.6 μM) were incubated at 37° C. for 20 days to prepare a tau aggregate. A phosphorylated tau aggregate was similarly prepared using tau proteins phosphorylated with GSK-3β in vitro. The results of Pro-Q diamond staining after performing SDS-PAGE confirmed that the in-vitro phosphorylation was performed with a phosphorylation degree of 6 mol P/mol Tau.
# 10 μM BODIPY-Zn(Dpa) or 10 μM thioflavine T (may be referred to as ThT) were added to the prepared tau aggregate or phosphorylated tau aggregate. After the addition, the mixture was washed twice with 0.5 mM Zn(NO3)2, and a suspension (0.5 μL) of the stained phosphorylated tau aggregate was air-dried on a cover glass and observed under a confocal laser scanning microscope (OLYMPUS FV-1000, Obj. lens 100×).
# [5] = biological target: T4, phosphorylated tau aggregate (Homo sapiens, UniProt P10636); test: Fluorescence titration of BODIPY-Zn(Dpa) against phosphorylated tau aggregate (EC50); type: binding
# T4 construct: made in house; host or cells: Escherichia coli
# Experimental: (§3) BODIPY-Zn(Dpa) was titrated against a phosphorylated tau aggregate, a tau aggregate, and an amyloid β aggregate to obtain EC50 (a probe concentration at which a half value of the maximum change (ΔFmax) in fluorescence intensity is observed). BODIPY-Zn(Dpa) was titrated against an aggregate at a predetermined concentration (1 μg/mL), and changes in fluorescence intensity at each concentration (ΔF) were plotted. Using a solvent obtained by adding 10% DMSO and 100 μM Zn(NO3)2 to HBS (10 mM HEPES (pH 7.4), 150 mM NaCl), the solution was incubated at 37° C. for 30 min, and fluorescence was measured (excitation wavelength, 490 nm; fluorescence wavelength, 545 nm).
# [6] = biological target: T5, amyloid β aggregate (Homo sapiens, UniProt P05067); test: Fluorescence titration of BODIPY-Zn(Dpa) against amyloid β aggregate (EC50); type: binding; settings: aggregate 1 μg/mL, 37° C., 30 min
# T5 construct: (Aβ1-42) indicates amyloid β aggregate
# Experimental: as §3
# [7] = tested on: amyloid beta protein; test: Fluorescence staining of AD-affected human brain hippocampal tissue sections, costaining with anti-Aβ antibody; settings: 10 μM probe
# Experimental: To investigate whether an excessively phosphorylated tau protein in brain tissues can be detected, a fluorescence staining experiment of hippocampal tissue sections from a human brain affected by Alzheimer (AD) and a normal brain was performed using BODIPY-Zn(Dpa). Specifically, hippocampal tissue sections from the AD-affected human brain or the normal brain were deparaffinized (xylene immersion for 5 min was repeated three times, then each section was immersed in 100%, 90%, 80% and 70% aqueous ethanol solution in stages [for 2 min each], and finally washed twice with water for 5 min), lipofuscin was removed (washed twice with PBS for 2 min, immersed in 0.25% by weight permanganate potassium/PBS for 30 min, washed twice with PBS for 2 min, immersed in 1% by weight oxalic acid and 1% by weight potassium pyrosulfate/PBS for 6 min and finally washed twice with PBS for 2 min), trypsin treatment was performed (washed twice with PBS-Tween at room temperature for 2 min and 0.05% Trypsin/PBS at 37° C. for 15 min), and finally washed twice with PBS-Tween at room temperature for 5 min, and costaining was performed using an antibody and BODIPY-Zn(Dpa). First, blocking was performed with 10% goat serum (37° C., 30 min) to remove 10% goat serum, then a primary antibody was added, and a reaction was performed at 4° C. for 17 to 19 h. […]
# T4 sequence (P10636 1-441 isoform P10636-8): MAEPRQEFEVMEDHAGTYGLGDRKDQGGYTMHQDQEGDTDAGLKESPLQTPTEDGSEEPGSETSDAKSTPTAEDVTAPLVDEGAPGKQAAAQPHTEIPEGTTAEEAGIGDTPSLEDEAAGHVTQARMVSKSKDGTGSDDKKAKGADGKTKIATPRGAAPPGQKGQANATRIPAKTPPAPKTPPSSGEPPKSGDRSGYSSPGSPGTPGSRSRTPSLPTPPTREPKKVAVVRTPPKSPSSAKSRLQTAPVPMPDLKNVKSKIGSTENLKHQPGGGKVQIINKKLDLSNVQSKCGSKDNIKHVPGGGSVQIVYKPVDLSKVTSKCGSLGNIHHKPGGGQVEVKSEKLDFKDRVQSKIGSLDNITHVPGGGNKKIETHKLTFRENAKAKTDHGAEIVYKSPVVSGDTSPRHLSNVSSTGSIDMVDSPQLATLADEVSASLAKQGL
# T3 sequence (P10636 1-441 isoform P10636-8): as above
# T5 sequence (P05067 672-713 limits assumed): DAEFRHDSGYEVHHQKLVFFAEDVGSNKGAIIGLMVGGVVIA
compound,measurement,setting,value
CC1=C(c2ccc(CN(C)Cc3ccccn3)nc2)C(C)=[N+]2C1=C(c1cc(OCCOCCOCCO)cc(OCCOCCOCCO)c1)c1c(C)c(-c3ccc(CN(C)Cc4ccccn4)nc3)c(C)n1[B-]2(F)F.O=[N+]([O-])[O-].O=[N+]([O-])[O-].O=[N+]([O-])[O-].O=[N+]([O-])[O-].[Zn+2].[Zn+2] [BODIPY-Zn(Dpa)],fluorescence dots in staining image after PP2A treatment,[1],disappeared
same,fluorescence intensity after PP2A treatment compared with before,[1],significantly decreased
same,Association constant,"[2]; Tau204-216 3P (i, i+4, i+6)",230000 M⁻¹
same,I/I0 - 1 at saturation,"[2]; Tau204-216 3P (i, i+4, i+6)",0.25
same,detection of peptide by fluorescence change,[2]; Tau204-2163P,could be detected
same,I/I0 - 1 at saturation,"[3]; Tau204-216 2P (i, i+6)",No change
same,detection of / interaction with peptide by fluorescence change,"[3]; Tau204-2162P (i, i+6)",could not be detected; also recorded: did not interact
same,staining of aggregate,[4]; p-Tau in the presence of pyrophosphoric acid (PPi),did not stain the aggregate
same,staining of aggregate,"[4]; p-Tau, 10 μM dye",could bind to and stain the p-Tau aggregate
same,EC50,"[5]; aggregate 1 μg/mL, 37° C., 30 min",0.0091 µM
same,affinity (EC50) for phosphorylated tau aggregate relative to amyloid β aggregate,[5]; higher than for the amyloid β aggregate,70 times
same,affinity (EC50) for phosphorylated tau aggregate relative to tau aggregate,[5]; higher than for the tau aggregate,9 times
same,EC50,[6],0.65 µM
same,coexistence of fluorescence with Aβ42 (anti-Aβ antibody) staining,[7],did not coexist
